Source: ChEMBL document CHEMBL6078689, “Discovery of novel biaryl urea derivatives against IL-1β release with low toxicity based on NEK7 inhibitor” (Eur J Med Chem, 2025)
Calls of active or inactive are those of the source. No cut-off for these calls is given here.

Assays:
[1] = Cytotoxicity against C57BL/6 mouse BMDM cells assessed as cell viability at 0.1 uM incubated for 4 hrs by CCK-8 assay relative to control; assay type: toxicity, cell-based; details: bone marrow-derived macrophages (BMDM cells), read-out: Activity
BMDM [2] = assay: Inhibition of NLRP3 inflammasome activation in LPS-induced C57BL/6 mouse BMDM cells assessed as reduction in IL-1beta release at 0.1 uM preincubated with LPS for 1 hrs followed by compound addition and measured after 2 hrs by ELISA relative to control; assay type: cell-based
[3] = Selectivity index, ratio of CC50 for C57BL/6 mouse BMDM cells to IC50 for Inhibition of NLRP3 inflammasome activation in LPS-induced C57BL/6 mouse BMDM cells assessed as reduction in IL-1beta release; assay type: toxicity, cell-based; details: bone marrow-derived macrophages (BMDM cells), read-out: Ratio CC50/IC50
[4] = Cytotoxicity against C57BL/6 mouse BMDM cells assessed as cell viability incubated for 4 hrs by CCK-8 assay; assay type: toxicity, cell-based; details: bone marrow-derived macrophages (BMDM cells)
[5] = Inhibition of NLRP3 inflammasome activation in LPS-induced C57BL/6 mouse BMDM cells assessed as reduction in IL-1beta release preincubated with LPS for 1 hrs followed by compound addition and measured after 2 hrs by ELISA; assay type: cell-based; details: C57BL/6, BMDM
[6] = biological target: Serine/threonine-protein kinase Nek7 (Homo sapiens, UniProt Q8TDX7); assay: Inhibition of N-terminal GST-tagged full-length recombinant human NEK7 extracted from baculovirus infected in Sf9 cells preincubated for 20 mins followed by [32P]-ATP addition and measured after 2 hrs
BMDM [7] = assay: Binding affinity to NEK7 in LPS-primed C57BL/6 mouse BMDM cells assessed as thermal stabilization preincubated with LPS for 1 hrs followed by compound addition and incubated for 2 hrs under 48 to 53 degreeC by CETSA; assay type: cell-based
[8] = biological target: NLRP3-NEK7 (Mus musculus) (UniProt Q8R4B8+Q9ES74); assay: Inhibition of NLRP3/NEK7 protein-protein interaction in LPS-induced C57BL/6 mouse BMDM cells by co-immunoprecipitation based Western blot analysis; assay type: cell-based
Chain of NLRP3-NEK7 (Mus musculus) (Q8R4B8 whole entry, looked up): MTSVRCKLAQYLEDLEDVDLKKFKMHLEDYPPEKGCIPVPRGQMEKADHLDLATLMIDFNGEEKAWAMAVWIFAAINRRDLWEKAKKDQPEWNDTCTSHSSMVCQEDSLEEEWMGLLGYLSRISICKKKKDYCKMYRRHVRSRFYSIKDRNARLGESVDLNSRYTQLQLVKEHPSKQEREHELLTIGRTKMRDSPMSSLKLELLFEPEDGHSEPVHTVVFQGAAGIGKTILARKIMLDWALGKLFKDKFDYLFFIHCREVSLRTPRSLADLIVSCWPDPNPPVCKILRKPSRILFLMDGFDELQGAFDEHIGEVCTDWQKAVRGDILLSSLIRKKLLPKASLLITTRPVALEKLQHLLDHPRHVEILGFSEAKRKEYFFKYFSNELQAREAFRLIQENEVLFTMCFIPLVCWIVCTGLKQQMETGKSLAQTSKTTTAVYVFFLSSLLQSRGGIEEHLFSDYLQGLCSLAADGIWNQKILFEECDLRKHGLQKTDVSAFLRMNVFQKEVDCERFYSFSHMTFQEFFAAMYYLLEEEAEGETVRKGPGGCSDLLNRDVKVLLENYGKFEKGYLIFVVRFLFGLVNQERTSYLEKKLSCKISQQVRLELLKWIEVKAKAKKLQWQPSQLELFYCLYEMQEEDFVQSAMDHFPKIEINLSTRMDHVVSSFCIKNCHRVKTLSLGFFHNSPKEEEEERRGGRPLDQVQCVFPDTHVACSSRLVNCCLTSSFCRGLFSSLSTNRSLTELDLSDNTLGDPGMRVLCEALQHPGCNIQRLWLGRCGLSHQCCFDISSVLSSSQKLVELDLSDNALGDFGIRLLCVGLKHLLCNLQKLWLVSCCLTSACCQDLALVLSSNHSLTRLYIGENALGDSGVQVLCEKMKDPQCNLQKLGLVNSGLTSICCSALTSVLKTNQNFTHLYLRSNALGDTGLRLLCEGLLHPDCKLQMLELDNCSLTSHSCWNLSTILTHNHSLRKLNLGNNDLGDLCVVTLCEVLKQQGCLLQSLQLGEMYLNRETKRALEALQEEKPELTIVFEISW
Chain of NLRP3-NEK7 (Mus musculus) (Q9ES74 whole entry, looked up): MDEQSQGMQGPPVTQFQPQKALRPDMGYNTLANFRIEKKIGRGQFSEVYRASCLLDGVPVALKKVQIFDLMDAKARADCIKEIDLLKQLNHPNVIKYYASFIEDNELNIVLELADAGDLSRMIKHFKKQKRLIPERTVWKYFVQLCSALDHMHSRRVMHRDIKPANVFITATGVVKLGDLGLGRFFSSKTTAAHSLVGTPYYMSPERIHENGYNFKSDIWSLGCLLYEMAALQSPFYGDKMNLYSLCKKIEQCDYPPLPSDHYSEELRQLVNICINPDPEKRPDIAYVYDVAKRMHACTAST

Chain of Serine/threonine-protein kinase Nek7 (Q8TDX7 whole entry): as the sequence (Q9ES74 whole entry, looked up) above, with T14P, S52A, D150E, I273M, I285V, A286T, T302S counted along it

| SMILES | viability at 4 h, 0.1 µM [1] [%] | inhibition (BMDM [2]) [%] | further results |
| --- | --- | --- | --- |
| CN1CCN(Cc2ccc(NC(=O)Nc3ccc(-c4cncnc4N)cc3F)cc2C(F)(F)F)CC1 | 106 | -1.08 | – |
| CN1CCN(Cc2ccc(NC(=O)Nc3ccc(-c4ncc(N)cn4)cc3F)cc2C(F)(F)F)CC1 | 71.8 | – | – |
| CN1CCN(Cc2ccc(NC(=O)Nc3ccc(-c4cc5ccccc5nc4N)cc3F)cc2C(F)(F)F)CC1 | 86 | – | – |
| CC(=O)Nc1ccc(-c2ccc(C(=O)Nc3ccc(CN4CCN(C)CC4)c(C(F)(F)F)c3)c(F)c2)cn1 | 90.4 | – | – |
| CC(=O)Nc1ccc(-c2ccc(NC(=O)Nc3cccc(C(F)(F)F)c3)c(F)c2)cn1 | 96.4 | -7.98 | – |
| CNc1ccc(-c2ccc(NC(=O)Nc3ccc(CN4CCN(C)CC4)c(C(F)(F)F)c3)c(F)c2)cn1 | 95.5 | 41.5 | – |
| COc1ccc(-c2ccc(NC(=O)Nc3ccc(CN4CCN(C)CC4)c(C(F)(F)F)c3)c(F)c2)cn1 | 104 | – | – |
| CN1CCN(Cc2ccc(NC(=O)Nc3ccc(-c4cnc(N)c5ccccc45)cc3F)cc2C(F)(F)F)CC1 | 108 | -7.76 | – |
| CC(C)(O)c1coc(S(=O)(=O)NC(=O)Nc2c3c(cc4c2CCC4)CCC3)c1 | – | 66.7 | selectivity ratio [3]: > 118; CC50 at 4 h [4]: > 10 µM; IC50 [5]: 85 nM |
| CN1CCN(Cc2ccc(NC(=O)Nc3ccc(-c4nc(N)c5ccccc5n4)cc3F)cc2C(F)(F)F)CC1 | 108 | – | – |
| CN1CCN(Cc2ccc(NC(=O)Nc3ccc(-c4c(N)ncc5ccccc45)cc3F)cc2C(F)(F)F)CC1 | 61.1 | – | – |
| CN1CCN(Cc2ccc(NC(=O)Nc3ccc(-c4ccc(N)cn4)cc3F)cc2C(F)(F)F)CC1 | 104 | – | – |
| CN1CCN(Cc2ccc(NC(=O)Nc3ccc(-c4cccc(N)n4)cc3F)cc2C(F)(F)F)CC1 | 109 | – | – |
| CN1CCN(Cc2ccc(NC(=O)Nc3ccc(-c4ccnc(N)n4)cc3F)cc2C(F)(F)F)CC1 | 78 | 25.7 | – |
| CC(=O)Nc1ccc(-c2ccc(NC(=O)c3ccc(CN4CCN(C)CC4)c(C(F)(F)F)c3)c(F)c2)cn1 | 92.6 | 0 | – |
| CC(=O)Nc1ccc(-c2ccc(NC(=O)Nc3ccc(CN4CCN(C)CC4)cc3)c(F)c2)cn1 | 94.9 | – | – |
| CN1CCN(Cc2ccc(NC(=O)Nc3ccc(-c4cnc5cccnn45)cc3F)cc2C(F)(F)F)CC1 | 91.4 | -9.39 | – |
| CN1CCN(Cc2ccc(NC(=O)Nc3ccc(-c4ccc(N)nc4)cc3F)cc2C(F)(F)F)CC1 | 86 | 82.3 | selectivity ratio [3]: 8.26; CC50 at 4 h [4]: 0.247 µM; IC50 [5]: 30 nM |
| CN1CCN(Cc2ccc(NC(=O)Nc3ccc(-c4ccnc(N)c4)cc3F)cc2C(F)(F)F)CC1 | 112 | 3.67 | – |
| CN1CCN(Cc2ccc(NC(=O)Nc3ccc(-c4ccc(O)nc4)cc3F)cc2C(F)(F)F)CC1 | 106 | – | – |
| CN1CCN(Cc2ccc(NC(=O)Nc3ccc(-c4cccnc4N)cc3F)cc2C(F)(F)F)CC1 | 65 | – | – |
| CN1CCN(Cc2ccc(NC(=O)Nc3ccc(-c4cn(C5CC5)c5ncnc(N)c45)cc3F)cc2C(F)(F)F)CC1 | 17.2 | – | IC50 [6]: < 100 nM |
| CN1CCN(Cc2ccc(NC(=O)Nc3ccc(-c4nc(N)cc5ccccc45)cc3F)cc2C(F)(F)F)CC1 | 122 | 30.6 | – |
| CC(=O)Nc1ccc(-c2ccc(NC(=O)Nc3ccc(CN4CCN(C)CC4)c(C(F)(F)F)c3)c(F)c2)cn1 | 98.3 | 90.3 | Activity (BMDM [7]): Active; Compound Is Capable Of Binding To Nek7; selectivity ratio [3]: 80.3; CC50 at 4 h [4]: 3.84 µM; IC50 [5]: 48 nM; inhibition [8]: Active |
| CN1CCN(Cc2ccc(NC(=O)Nc3ccc(-c4nccnc4N)cc3F)cc2C(F)(F)F)CC1 | 107 | 28.2 | – |
